Data as given in ChEMBL document CHEMBL5291721, “A preclinical secondary pharmacology resource illuminates target-adverse drug reaction associations of marketed drugs” (Nat Commun, 2023).
Values joined by “and” are separate entries in the source; they are usually repeats but may differ in a detail not shown here. Equal entries are not always repeated.

Key:
[1] = molecular target: T1, Neuropeptide Y receptor type 1 (Homo sapiens, UniProt P25929)
T1 sequence (P25929 whole entry): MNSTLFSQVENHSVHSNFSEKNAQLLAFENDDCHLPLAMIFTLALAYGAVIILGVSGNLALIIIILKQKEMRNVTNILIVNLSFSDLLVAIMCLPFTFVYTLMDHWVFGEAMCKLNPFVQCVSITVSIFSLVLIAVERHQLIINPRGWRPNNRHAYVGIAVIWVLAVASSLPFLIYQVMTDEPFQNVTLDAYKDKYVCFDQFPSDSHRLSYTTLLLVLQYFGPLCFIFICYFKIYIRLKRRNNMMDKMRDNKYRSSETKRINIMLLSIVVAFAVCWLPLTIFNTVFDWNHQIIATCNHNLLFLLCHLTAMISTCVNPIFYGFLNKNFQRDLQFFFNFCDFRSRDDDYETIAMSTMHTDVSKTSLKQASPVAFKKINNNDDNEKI

[2] = molecular target: T2, Alpha-2C adrenergic receptor (Homo sapiens, UniProt P18825); format: functional
T2 sequence (P18825 whole entry): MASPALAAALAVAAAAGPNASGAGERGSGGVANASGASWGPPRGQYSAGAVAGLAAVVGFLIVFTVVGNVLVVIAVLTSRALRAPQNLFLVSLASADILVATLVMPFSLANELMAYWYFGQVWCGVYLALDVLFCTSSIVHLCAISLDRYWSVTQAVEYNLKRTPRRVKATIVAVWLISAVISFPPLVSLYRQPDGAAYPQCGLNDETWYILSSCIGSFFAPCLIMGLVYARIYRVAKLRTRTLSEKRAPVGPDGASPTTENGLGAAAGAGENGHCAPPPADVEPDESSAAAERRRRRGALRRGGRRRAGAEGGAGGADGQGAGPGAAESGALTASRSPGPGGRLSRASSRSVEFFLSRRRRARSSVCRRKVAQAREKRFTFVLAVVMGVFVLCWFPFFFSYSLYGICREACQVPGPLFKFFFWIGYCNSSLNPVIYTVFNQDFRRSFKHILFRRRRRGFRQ

[3] = molecular target: Kappa-type opioid receptor (Homo sapiens, UniProt P41145)
[4] = molecular target: 5-hydroxytryptamine receptor 2B (Homo sapiens, UniProt P41595); format: functional, cell-based
[5] = molecular target: Sodium-dependent noradrenaline transporter (Homo sapiens, UniProt P23975)
[6] = molecular target: Growth hormone secretagogue receptor type 1 (Homo sapiens, UniProt Q92847)
Vasopressin V2 receptor = Vasopressin V2 receptor (Homo sapiens, UniProt P30518)
[7] = molecular target: cGMP-inhibited 3',5'-cyclic phosphodiesterase 3A (Homo sapiens, UniProt Q14432); format: functional
Progesterone receptor = molecular target: T3, Progesterone receptor (Homo sapiens, UniProt P06401); format: functional
T3 sequence (P06401 whole entry): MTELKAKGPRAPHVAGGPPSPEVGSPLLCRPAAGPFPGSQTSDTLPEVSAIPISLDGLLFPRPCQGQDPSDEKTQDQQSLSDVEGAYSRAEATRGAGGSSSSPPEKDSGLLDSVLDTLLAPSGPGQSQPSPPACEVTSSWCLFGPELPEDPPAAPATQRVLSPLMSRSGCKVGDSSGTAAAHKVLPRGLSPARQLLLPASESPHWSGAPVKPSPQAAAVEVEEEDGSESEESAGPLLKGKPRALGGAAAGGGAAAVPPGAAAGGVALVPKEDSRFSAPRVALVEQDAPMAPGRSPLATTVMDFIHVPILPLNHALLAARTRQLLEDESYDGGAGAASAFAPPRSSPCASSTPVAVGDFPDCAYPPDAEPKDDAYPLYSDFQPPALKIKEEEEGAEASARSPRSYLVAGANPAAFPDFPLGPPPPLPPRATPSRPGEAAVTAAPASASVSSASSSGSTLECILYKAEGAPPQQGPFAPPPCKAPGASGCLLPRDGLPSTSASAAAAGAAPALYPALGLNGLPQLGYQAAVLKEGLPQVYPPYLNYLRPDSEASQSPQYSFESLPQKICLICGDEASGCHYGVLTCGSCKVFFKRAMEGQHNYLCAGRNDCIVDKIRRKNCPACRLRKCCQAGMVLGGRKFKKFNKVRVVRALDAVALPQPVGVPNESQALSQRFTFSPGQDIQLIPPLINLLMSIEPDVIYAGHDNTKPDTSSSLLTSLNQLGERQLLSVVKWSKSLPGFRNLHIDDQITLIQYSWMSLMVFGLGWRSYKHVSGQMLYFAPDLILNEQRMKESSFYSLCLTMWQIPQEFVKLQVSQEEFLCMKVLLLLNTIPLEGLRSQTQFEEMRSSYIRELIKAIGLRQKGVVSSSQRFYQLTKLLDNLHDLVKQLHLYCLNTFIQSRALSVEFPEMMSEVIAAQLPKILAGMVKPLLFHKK

Glucocorticoid receptor = molecular target: T4, Glucocorticoid receptor (Homo sapiens, UniProt P04150)
T4 sequence (P04150 whole entry): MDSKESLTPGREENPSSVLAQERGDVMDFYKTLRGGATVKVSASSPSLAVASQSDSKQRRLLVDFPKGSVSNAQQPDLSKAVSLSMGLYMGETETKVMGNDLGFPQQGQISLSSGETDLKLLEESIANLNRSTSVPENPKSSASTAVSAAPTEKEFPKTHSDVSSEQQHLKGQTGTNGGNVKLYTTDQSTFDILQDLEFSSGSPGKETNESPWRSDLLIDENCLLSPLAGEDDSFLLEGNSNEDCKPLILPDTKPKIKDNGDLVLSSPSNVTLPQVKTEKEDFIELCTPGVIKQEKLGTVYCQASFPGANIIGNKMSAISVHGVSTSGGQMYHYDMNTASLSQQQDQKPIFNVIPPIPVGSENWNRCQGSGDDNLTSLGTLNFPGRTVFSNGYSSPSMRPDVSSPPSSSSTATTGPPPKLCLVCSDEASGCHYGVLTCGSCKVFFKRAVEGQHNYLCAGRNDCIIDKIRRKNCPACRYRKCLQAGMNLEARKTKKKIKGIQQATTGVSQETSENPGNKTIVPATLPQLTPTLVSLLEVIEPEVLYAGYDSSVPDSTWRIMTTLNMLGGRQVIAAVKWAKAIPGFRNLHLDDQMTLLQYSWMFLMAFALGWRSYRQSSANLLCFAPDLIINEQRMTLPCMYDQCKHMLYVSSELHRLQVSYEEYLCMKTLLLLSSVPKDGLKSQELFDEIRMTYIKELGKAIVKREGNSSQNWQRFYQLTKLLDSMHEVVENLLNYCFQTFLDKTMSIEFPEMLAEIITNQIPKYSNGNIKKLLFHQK
Further: assay procedure not described here.

Chain of Sodium-dependent noradrenaline transporter (P23975 whole entry): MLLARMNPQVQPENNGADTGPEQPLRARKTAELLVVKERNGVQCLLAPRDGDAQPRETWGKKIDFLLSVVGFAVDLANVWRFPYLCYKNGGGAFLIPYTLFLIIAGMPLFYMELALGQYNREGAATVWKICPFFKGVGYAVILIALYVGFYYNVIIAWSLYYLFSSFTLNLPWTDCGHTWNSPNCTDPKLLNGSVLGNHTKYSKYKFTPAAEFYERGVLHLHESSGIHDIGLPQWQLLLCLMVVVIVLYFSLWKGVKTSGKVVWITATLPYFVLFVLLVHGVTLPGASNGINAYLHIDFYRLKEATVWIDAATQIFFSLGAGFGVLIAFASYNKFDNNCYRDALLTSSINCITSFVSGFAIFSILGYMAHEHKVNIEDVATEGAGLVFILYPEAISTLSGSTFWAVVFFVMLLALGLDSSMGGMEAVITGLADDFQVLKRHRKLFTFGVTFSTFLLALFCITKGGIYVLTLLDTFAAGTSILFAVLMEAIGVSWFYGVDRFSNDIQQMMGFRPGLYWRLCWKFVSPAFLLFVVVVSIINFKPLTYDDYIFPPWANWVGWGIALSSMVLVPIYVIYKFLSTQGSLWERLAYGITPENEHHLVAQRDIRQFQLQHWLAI
Chain of Kappa-type opioid receptor (P41145 whole entry): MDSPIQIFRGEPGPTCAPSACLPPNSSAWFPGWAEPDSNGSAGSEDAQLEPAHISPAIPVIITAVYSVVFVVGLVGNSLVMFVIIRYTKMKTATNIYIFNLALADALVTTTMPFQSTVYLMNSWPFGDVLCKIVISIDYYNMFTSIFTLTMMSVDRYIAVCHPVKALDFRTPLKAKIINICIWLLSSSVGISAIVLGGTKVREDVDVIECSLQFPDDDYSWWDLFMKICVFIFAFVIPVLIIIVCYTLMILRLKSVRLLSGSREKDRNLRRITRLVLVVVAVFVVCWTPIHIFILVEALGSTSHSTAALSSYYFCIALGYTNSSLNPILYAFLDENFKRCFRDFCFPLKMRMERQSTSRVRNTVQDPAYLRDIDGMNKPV
Chain of 5-hydroxytryptamine receptor 2B (P41595 whole entry): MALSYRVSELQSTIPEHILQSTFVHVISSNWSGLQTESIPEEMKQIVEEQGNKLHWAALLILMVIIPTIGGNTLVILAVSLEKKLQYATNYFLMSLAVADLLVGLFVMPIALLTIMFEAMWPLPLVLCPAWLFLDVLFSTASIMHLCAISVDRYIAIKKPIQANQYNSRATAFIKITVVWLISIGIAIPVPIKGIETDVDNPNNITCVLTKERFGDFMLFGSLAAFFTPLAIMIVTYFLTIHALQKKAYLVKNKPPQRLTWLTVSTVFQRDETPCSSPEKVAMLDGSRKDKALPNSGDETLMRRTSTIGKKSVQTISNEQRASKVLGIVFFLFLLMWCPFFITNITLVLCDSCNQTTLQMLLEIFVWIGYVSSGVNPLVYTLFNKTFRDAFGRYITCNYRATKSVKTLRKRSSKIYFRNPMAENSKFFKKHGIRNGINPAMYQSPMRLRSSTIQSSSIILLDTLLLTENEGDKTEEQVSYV
Chain of cGMP-inhibited 3',5'-cyclic phosphodiesterase 3A (Q14432 whole entry): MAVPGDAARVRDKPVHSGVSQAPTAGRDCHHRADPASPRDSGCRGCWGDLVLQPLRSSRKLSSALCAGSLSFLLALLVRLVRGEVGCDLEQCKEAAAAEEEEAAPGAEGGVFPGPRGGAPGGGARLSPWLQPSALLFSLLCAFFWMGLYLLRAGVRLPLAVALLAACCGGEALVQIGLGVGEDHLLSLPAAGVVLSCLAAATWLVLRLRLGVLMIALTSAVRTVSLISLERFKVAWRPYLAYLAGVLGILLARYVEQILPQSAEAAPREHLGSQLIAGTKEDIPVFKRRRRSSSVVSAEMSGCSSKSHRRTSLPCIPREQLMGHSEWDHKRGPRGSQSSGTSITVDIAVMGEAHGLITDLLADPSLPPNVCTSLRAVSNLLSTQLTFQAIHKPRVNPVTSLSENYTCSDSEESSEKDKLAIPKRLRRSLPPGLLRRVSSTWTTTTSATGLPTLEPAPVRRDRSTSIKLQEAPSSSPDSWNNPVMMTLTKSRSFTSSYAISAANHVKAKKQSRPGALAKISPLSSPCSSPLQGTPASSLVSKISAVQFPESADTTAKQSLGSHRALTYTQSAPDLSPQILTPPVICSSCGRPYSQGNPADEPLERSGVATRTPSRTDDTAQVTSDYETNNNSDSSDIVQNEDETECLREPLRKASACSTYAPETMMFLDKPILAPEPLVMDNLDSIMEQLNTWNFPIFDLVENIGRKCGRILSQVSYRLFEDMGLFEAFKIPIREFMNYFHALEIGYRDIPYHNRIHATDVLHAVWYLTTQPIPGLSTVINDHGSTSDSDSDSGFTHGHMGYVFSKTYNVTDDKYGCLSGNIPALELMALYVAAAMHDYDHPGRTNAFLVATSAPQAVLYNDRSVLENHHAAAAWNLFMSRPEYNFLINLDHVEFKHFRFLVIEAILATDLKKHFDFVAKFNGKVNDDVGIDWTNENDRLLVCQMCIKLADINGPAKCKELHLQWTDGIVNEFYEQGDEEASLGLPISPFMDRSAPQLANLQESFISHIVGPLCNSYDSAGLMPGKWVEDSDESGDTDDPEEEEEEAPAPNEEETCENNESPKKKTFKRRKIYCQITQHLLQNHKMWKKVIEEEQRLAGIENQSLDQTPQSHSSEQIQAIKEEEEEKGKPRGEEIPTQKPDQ
Chain of Growth hormone secretagogue receptor type 1 (Q92847 whole entry): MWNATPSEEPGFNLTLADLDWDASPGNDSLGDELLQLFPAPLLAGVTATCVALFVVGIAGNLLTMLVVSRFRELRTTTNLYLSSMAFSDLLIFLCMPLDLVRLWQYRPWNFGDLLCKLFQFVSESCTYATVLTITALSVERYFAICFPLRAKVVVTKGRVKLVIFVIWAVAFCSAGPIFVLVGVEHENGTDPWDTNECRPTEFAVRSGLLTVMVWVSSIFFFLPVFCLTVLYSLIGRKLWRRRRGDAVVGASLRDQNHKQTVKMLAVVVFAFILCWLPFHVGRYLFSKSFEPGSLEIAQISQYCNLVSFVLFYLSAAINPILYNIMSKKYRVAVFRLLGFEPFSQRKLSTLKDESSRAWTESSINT
Chain of Vasopressin V2 receptor (P30518 whole entry): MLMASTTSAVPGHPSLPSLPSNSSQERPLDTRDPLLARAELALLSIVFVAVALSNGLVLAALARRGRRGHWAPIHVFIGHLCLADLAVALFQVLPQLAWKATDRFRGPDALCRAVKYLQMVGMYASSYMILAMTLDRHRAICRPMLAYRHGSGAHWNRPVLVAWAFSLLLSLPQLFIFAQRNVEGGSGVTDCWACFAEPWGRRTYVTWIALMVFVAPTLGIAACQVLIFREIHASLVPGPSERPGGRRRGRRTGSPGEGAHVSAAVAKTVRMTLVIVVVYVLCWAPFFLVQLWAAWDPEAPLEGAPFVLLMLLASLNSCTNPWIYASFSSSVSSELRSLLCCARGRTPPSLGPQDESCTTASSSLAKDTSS

| Structure (SMILES) | AC50 [1] [µM] | AC50 [2] [µM] | AC50 [3] [µM] | AC50 [4] | AC50 [5] [µM] | AC50 [6] [µM] | AC50 (Vasopressin V2 receptor) [µM] | AC50 [7] [µM] | AC50 (Progesterone receptor) [µM] | AC50 (Glucocorticoid receptor) [µM] |
| --- | --- | --- | --- | --- | --- | --- | --- | --- | --- | --- |
| Oc1cc(O)c(Cl)cn1 | > 30 | > 30 | > 30 | > 30 µM | > 30 | > 30 | > 30 | > 30 | – | – |
| CCC1(CCC(C)C)C(=O)NC(=O)NC1=O [AMOBARBITAL] | > 10 | > 10 | > 10 | > 10 µM | > 10 | > 10 | > 10 | > 30 | > 10 | – |
| Cc1cc(=O)n(-c2ccccc2)n1C [ANTIPYRINE] | > 30 | > 10 | > 10 | > 10 µM | > 30 | > 30 | > 30 | > 30 | – | – |
| O=C(O)c1ccc(NC(=O)[C@H](Cc2ccc(O)cc2)NC(=O)c2ccccc2)cc1 [BENTIROMIDE] | > 10 | > 10 | > 10 | > 10 µM | > 10 | > 10 | > 10 | > 30 | > 10 | – |
| COc1cc(N)c(Cl)cc1C(=O)NC1CCN(CCCOc2ccc(F)cc2)CC1OC (stereo unspecified) [CISAPRIDE] | > 30 | – | 16.7 | – | > 30 | > 30 | > 30 | > 30 | – | > 30 |
| CCOC(=O)C(C)(C)Oc1ccc(Cl)cc1 [CLOFIBRATE] | > 30 | > 10 | > 10 | > 10 µM | > 30 | > 30 | > 30 | > 30 | – | > 30 |
| C[C@@H]1C[C@H]2[C@@H]3CCC4=CC(=O)C=C[C@]4(C)[C@@]3(F)[C@@H](O)C[C@]2(C)[C@@]1(O)C(=O)CO [DEXAMETHASONE] | > 30 | > 30 | > 10 | > 10 µM | > 30 | > 30 | > 30 | > 30 | 0.2 | – |
| CC(C)[C@@H](C)/C=C/[C@@H](C)[C@H]1CC[C@H]2/C(=C/C=C3\C[C@@H](O)CC[C@@H]3C)CCC[C@]12C [DIHYDROTACHYSTEROL] | > 10 | > 10 | > 10 | > 10 µM | > 10 | > 10 | > 10 | > 30 | > 30 | – |
| Oc1ccc(CCNCCCCCCNCCc2ccccc2)cc1O [DOPEXAMINE] | > 30 | 1.2 | 4.3 | > 30 µM | 0.4 | > 30 | > 30 | > 30 | > 30 | – |
| CCCCOc1ccc(C(=O)CCN2CCCCC2)cc1 [DYCLONINE] | > 30 | 8.4 | > 10 | > 10 µM | 2.3 | > 30 | > 30 | > 10 | – | > 30 |
| CC(C)NC[C@H](O)COc1ccc(CC(N)=O)cc1 [ESATENOLOL] | > 30 | > 10 | > 10 | – | > 10 | > 30 | > 30 | > 10 | – | – |
| CCOC(=O)c1ncn2c1CN(C)C(=O)c1cc(F)ccc1-2 [FLUMAZENIL] | > 30 | > 30 | > 30 | > 30 µM | > 30 | > 30 | > 30 | > 30 | > 30 | – |
| O=C1Nc2ccc(Cl)cc2C(c2ccccc2Cl)=NC1O (stereo unspecified) [LORAZEPAM] | > 30 | > 10 | > 10 | > 10 µM | > 10 | > 30 | > 30 | > 30 | – | > 30 |
| CO[C@H]1C[C@H](O[C@H]2CC[C@@]3(C)[C@H](CC[C@@H]4[C@@H]3CC[C@]3(C)[C@@H](C5=CC(=O)OC5)[C@@H](OC(C)=O)C[C@]43O)C2)O[C@@H](C)[C@@H]1O [OLEANDRIN] | – | > 30 | > 30 | – | – | – | – | > 30 | – | – |
| Fc1ccc([C@@H]2CCNC[C@H]2COc2ccc3c(c2)OCO3)cc1 [PAROXETINE] | > 30 | 7.8 | – | 9.9 µM and > 30 µM | – | > 30 | > 30 | > 30 | – | > 30 |
| CCC(=O)O[C@](Cc1ccccc1)(c1ccccc1)[C@H](C)CN(C)C [PROPOXYPHENE] | > 30 | > 10 | – | > 10 µM | > 10 | > 30 | > 30 | > 30 | – | – |
| O=c1c(O)c(-c2ccc(O)c(O)c2)oc2cc(O)cc(O)c12 [QUERCETIN] | > 30 | > 10 | 12.7 | > 30 µM | – | > 30 | – | > 30 | – | – |
| CC1=C(/C=C/C(C)=C/C=C/C(C)=C/CO)C(C)(C)CCC1 [RETINOL] | > 10 | > 10 | – | > 10 µM | > 10 | > 10 | > 10 | > 30 | > 30 | – |
| CCCN1CCCC[C@H]1C(=O)Nc1c(C)cccc1C [ROPIVACAINE] | > 30 | > 30 | > 30 | > 30 µM | > 30 | > 30 | > 30 | > 30 | > 30 | – |
| CCCCCCCC(=O)CC[C@@H]1[C@@H](C/C=C\CCCC(=O)OC(C)C)[C@@H](O)C[C@H]1O [UNOPROSTONE ISOPROPYL] | – | 13 | – | > 30 µM | 7.2 | – | – | > 30 | > 30 | – |
